Here are results for 2 molecules from article PMC6862323, “Substitution of Arginine 120 in Human D-Amino Acid Oxidase Favors FAD-Binding and Nuclear Mistargeting” (Frontiers in Molecular Biosciences, 2019).

Where two headings read alike, the source gives them in different places.

One data set addresses wild-type hDAAO. The note with it: ref Murtas et al. (2017), cited from earlier work.
For the next data set, the system named is W209R hDAAO. Also noted: method as in Cappelletti et al., 2015. The note with it: compared with wild-type hDAAO; ref Cappelletti et al., 2015; cited from earlier work.
A further data set has as its target T1, R120E hDAAO variant (Homo sapiens, UniProt P14920, R120E).
T1 construct: His-tag (N); made in house; host or cells: E. coli BL21 (DE3) Star
Kind of data set: FAD and ligand binding by quenching of protein fluorescence, R120E hDAAO. As for the experimental part:
(§1) Protein fluorescence spectra were recorded between 300 and 400 nm, with excitation at 280 nm using a Jasco FP-750 instrument (excitation slit of 10 nm; emission slit of 5 nm) in 10 mM potassium phosphate, pH 8.0, 1% (v/v) glycerol, 5 mM 2-mercaptoethanol, […]

The target in the next data set is T2, R120L hDAAO variant (Homo sapiens, UniProt P14920, R120L).
T2 construct: His-tag (N); made in house; host or cells: E. coli BL21 (DE3) Star
Kind of data set: FAD and ligand binding by quenching of protein fluorescence, R120L hDAAO. On the procedure: as §1

Details of data set [1]: method as in Molla et al. (2006) and Caldinelli et al. (2009). The conditions noted are these: 28 mM D-alanine, pH 8.5, 25°C; ref Molla et al. (2006) and Caldinelli et al. (2009); cited from earlier work.
In another data set the test system is U87 glioblastoma cells. In words: Confocal analysis of cellular distribution of EYFP-hDAAO variants in transiently transfected U87 cells. In kind it is cell-based, human. As for the experimental part: Human U87 glioblastoma cells (ATCC) were cultured in DMEM supplemented with 10% fetal bovine serum, 1 mM sodium pyruvate, 2 mM L-glutamine, 1% non-essential amino acids, 1% penicillin/streptomycin, and 1% amphotericin B (Euroclone), at 37°C in 5% CO2. The cells were transfected either with the pEYFP-hDAAO-C3 construct (for the expression of the wild-type enzyme downstream of the enhanced yellow fluorescent protein, EYFP) (Sacchi et al., [2008], [2011]), the pEYFP-hDAAO(R120L)-C3, or the pEYFP-hDAAO(R120E)-C3 expression vectors. The latter constructs were obtained by mutagenesis using the QuikChange Lightning Site-Directed Mutagenesis Kit (Agilent), and the following primers: 5′-[…]-3′ and 5′-[…]-3′ for the R120E substitution, and 5-[…]-3′ and 5′-[…]-3′ for the R120L substitution.
For transient transfection, 2 ×10^4 cells were seeded into eight-well chamber slides (Sarstedt). At 24 h after seeding, cells were transfected with 2 μg plasmid DNA using a 4:1 ratio of FuGENE transfection reagent (Promega) to DNA. Then, 12.5 μL of transfection mix was added to 500 μL medium per well. Protein expression levels were monitored by using a fluorescence microscope (Olympus IX51) equipped with a FITC filter and by Western blot analysis using an anti-hDAAO antibody (Davids Biotechnologie) (Sacchi et al., [2008], [2011]).
At 24, 48, and 72 h after transfection, cells were washed twice with PBS and fixed with ice-cold 4% p-formaldehyde and 4% sucrose for 10 min at room temperature. After fixation, cells were washed twice with PBS and blocked by incubation in PBS supplemented with 0.2% Triton X-100 and 4% horse serum for 30 min at room temperature. Peroxisomes were stained using rabbit polyclonal anti-PMP70 (peroxisomal membrane protein 70, Sigma), diluted 1:500 in PBS, 0.1% Triton X-100, and 4% horse serum overnight at 4°C; they were then washed twice in PBS and 1% horse serum and incubated for 1 h at room temperature (light protected) with goat anti-rabbit Dylight 550 secondary antibodies (Abcam) diluted 1:400 in PBS, 0.1% Triton X-100, and 1.5% horse serum. Cells were then extensively washed in PBS and nuclei were stained with DRAQ5™ (Thermo Scientific) and diluted 1:500 in PBS for 10 min at room temperature in the dark. Cells were washed three times with PBS and stored in PBS at 4°C until imaging.
Immunostained cells were imaged using an inverted laser scanning confocal microscope (TCS SP5, Leica Microsystems), equipped with a 63.0 ×1.25 NA plan apochromatic oil immersion objective. Confocal image stacks were acquired using the Leica TCS software with a sequential mode to avoid interference between each channel and without saturating any pixel. Cells in 10–15 non-magnified optical fields were analyzed for each condition (i.e., different EYFP-hDAAO expression constructs at different times after transfection). The fluorescence signal corresponding to the overexpressed EYFP-hDAAO variants was monitored by excitation at 514 nm (yellow channel); the peroxisomal and nuclear cellular compartments were imaged by excitation at 546 nm (red channel) and 647 nm (blue channel), respectively.
U87 glioblastoma cells were transiently transfected with a pEYFP-hDAAO-C3 plasmid encoding for EYFP-hDAAO chimeric proteins harboring R, E, or L at position 120 of the flavoenzyme. […] A similar amount of transfected cells (expressing EYFP-hDAAO protein) was obtained for all three constructs (Table 4). The percentage of cells showing a cytosolic, peroxisomal, and nuclear localization of the flavoenzyme was determined by comparing the yellow fluorescence signal of EYFP-hDAAO variants with those of the markers PMP-70 (for peroxisomes) and DRAQ5™ dye (for nuclei, Figure 5). The amount of cytosolic wild-type EYFP-hDAAO decreased with time after transfection (28% of the signal is cytosolic at 72 h vs. 94% at 24 h), as did the amount of nuclear signal (Table 4 and Figure 6). […]

Setting [2] is: apoprotein, no benzoate, read-out: FAD Kd, free form, first saturation phase.
Setting [3] is: apoprotein, no benzoate, read-out: FAD Kd, free form, second saturation phase.
Where [4] appears, read: in presence of 70 μM benzoate, read-out: FAD Kd, benzoate complex, first saturation phase.
[5] abbreviates: in presence of 70 μM benzoate, read-out: FAD Kd, benzoate complex, second saturation phase.

T2 sequence (P14920 whole entry R120L): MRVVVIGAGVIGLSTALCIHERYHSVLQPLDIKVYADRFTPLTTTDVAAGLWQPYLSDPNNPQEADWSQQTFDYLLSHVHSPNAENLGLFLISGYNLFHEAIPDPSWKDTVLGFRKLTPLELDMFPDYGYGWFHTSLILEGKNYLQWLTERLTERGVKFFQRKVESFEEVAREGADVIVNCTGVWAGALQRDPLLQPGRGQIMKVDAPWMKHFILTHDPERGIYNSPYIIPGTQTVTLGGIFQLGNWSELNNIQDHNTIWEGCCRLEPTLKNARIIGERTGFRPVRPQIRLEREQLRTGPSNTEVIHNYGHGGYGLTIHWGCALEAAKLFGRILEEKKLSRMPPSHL
T1 sequence (P14920 whole entry R120E): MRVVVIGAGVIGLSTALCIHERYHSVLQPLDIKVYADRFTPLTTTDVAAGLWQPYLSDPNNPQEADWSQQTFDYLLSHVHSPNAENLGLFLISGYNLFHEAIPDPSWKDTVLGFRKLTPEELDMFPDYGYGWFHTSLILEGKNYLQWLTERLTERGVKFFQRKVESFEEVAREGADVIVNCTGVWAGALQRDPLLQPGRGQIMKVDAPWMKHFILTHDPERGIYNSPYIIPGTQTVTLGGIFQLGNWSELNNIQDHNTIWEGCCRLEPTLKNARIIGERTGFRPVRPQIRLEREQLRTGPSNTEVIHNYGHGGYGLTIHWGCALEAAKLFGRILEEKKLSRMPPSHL

For `Cc1cc2nc3c(=O)[nH]c(=O)nc-3n(C[C@H](O)[C@H](O)[C@H](O)COP(=O)(O)OP(=O)(O)OC[C@H]3O[C@@H](n4cnc5c(N)ncnc54)[C@H](O)[C@@H]3O)c2cc1C` [FAD], the Kd on wild-type hDAAO (setting [2]) was 430 ± 20 nM; at wild-type hDAAO (setting [3]), at least 30000 nM; on wild-type hDAAO (in presence of 70 μM benzoate, monophasic, read-out: FAD Kd, benzoate complex), 480 ± 20 nM; on R120E hDAAO variant (setting [2]) it was 50 ± 10 nM; at R120E hDAAO variant (setting [3]), 32000 ± 3000 nM; on R120E hDAAO variant (setting [4]) it was 610 ± 80 nM. Moreover, the Kd on R120E hDAAO variant (setting [5]) was at least 30000 nM; on R120L hDAAO variant (setting [2]), 50 ± 10 nM; at R120L hDAAO variant (setting [3]), 23100 ± 1000 nM; on R120L hDAAO variant (setting [4]), 70 ± 10 nM; at R120L hDAAO variant (setting [5]), at least 20000 nM. Also, the “tighter FAD-binding (fold)” value in the data set with W209R hDAAO is recorded as 4 fold. Besides, the “amplitude of fluorescence change, FAD binding, free form, first phase” value on R120E hDAAO variant (apoprotein, no benzoate) is 65%; on R120L hDAAO variant (apoprotein, no benzoate), 60%. The “amplitude of fluorescence change, FAD binding, free form, second phase” value at R120E hDAAO variant (apoprotein, no benzoate) is recorded as 35%; at R120L hDAAO variant (apoprotein, no benzoate), 40%. Also, the “amplitude of fluorescence change, FAD binding, benzoate complex, first phase” value at R120E hDAAO variant (in presence of 70 μM benzoate) came out at 65%; on R120L hDAAO variant (in presence of 70 μM benzoate), 75%. The entries for the “amplitude of fluorescence change, FAD binding, benzoate complex, second phase” value on R120E hDAAO variant (in presence of 70 μM benzoate) and at R120L hDAAO variant (in presence of 70 μM benzoate) were 35% and 25%, respectively.
Take “Wild-type: recombinant wild-type human D-amino acid oxidase (His-tagged from E. coli; EYFP-tagged in U87 cells)”: in data set [1], the Specific activity is recorded as 12.0 U/mg protein. In the data set with U87 glioblastoma cells (24 h after transfection), the “hDAAO cellular distribution: A, large cytosolic aggregates detected” value is 18.7 % of transfected cells; the “hDAAO cellular distribution: C, cytosol” value was 69.4 % of transfected cells; the “hDAAO cellular distribution: C/P, mixed, cytosol and peroxisomes” value (“hDAAO cellular distribution: C/P, mixed” below) is 13.4 % of transfected cells; the “hDAAO cellular distribution: N, nucleus” value is listed as 14.4 % of transfected cells. The “hDAAO cellular distribution: P, peroxisomes” value (“hDAAO cellular distribution: P” for short) with U87 glioblastoma cells (24 h after transfection) was 17.2 % of transfected cells. For the same molecule, in the data set on U87 glioblastoma cells (48 h after transfection), the “hDAAO cellular distribution: A, large cytosolic aggregates detected” value was 15.4 % of transfected cells; the “hDAAO cellular distribution: C, cytosol” value was 21.2 % of transfected cells; the “hDAAO cellular distribution: C/P, mixed” value is 26.9 % of transfected cells; the “hDAAO cellular distribution: N, nucleus” value is 9.6 % of transfected cells. Besides, the “hDAAO cellular distribution: P” value in the data set with U87 glioblastoma cells (48 h after transfection) was 51.9 % of transfected cells. Besides, in the data set on U87 glioblastoma cells (72 h after transfection), the “cytosolic signal” value is 28%; the “hDAAO cellular distribution: A, large cytosolic aggregates detected” value is 5.6 % of transfected cells; the “hDAAO cellular distribution: C, cytosol” value is 10.4 % of transfected cells; the “hDAAO cellular distribution: C/P, mixed” value is reported as 18.4 % of transfected cells. Moreover, in the data set on U87 glioblastoma cells (72 h after transfection), the “hDAAO cellular distribution: N, nucleus” value is listed as 4.0 % of transfected cells and the “hDAAO cellular distribution: P” value is listed as 71.2 % of transfected cells.
